What was measured:
[1] = Multiple rising dose Phase 1 pharmacokinetics; assay type: in vivo, human; conditions: steady state
Description: The steady state AUC geometric mean accumulation ratios were ˜2 in young male subjects and ˜2.8 in elderly subjects (male and female).
Although exposures were similar in middle-aged males when compared to young males, plasma concentrations were higher in elderly compared to middle-aged and young subjects. […] Furthermore, the steady state AUC geometric mean accumulation ratios were ˜2 in young males and ˜2.8 in the elderly.

men and women with OAB = test: Phase 2b efficacy study in men and women with OAB; assay type: in vivo, human; conditions: for Micturitions, change from baseline in average number of micturitions, difference in LS means / Total incontinence, change from baseline in average number of episodes, difference in LS means / Urgency Episodes, change from baseline in average number of episodes, difference in LS means / Urgency incontinence, change from baseline in average number of episodes, difference in LS means / Volume voided, change from baseline in average volume per void over one diary day, difference in LS means: week 8; for Change from baseline in volume voided per micturition, difference from placebo in LS means: Week 8; for Total incontinence episodes, change from baseline Week 8, mean / Total incontinence episodes, daily number, Week 8 mean / Total incontinence episodes, difference from placebo Week 8, difference in LS means / Urgency incontinence episodes, change from baseline Week 8, mean / Urgency incontinence episodes, daily number, Week 8 mean / Urgency incontinence episodes, difference from placebo Week 8, difference in LS means: OAB wet subjects
Description: Part 2 was designed to continue to assess the safety and efficacy of concomitant dosing. […] Subjects in both Part 1 and Part 2 had the option of enrolling in a 1-year extension. Participants were required to keep a voiding diary, recording the occurrence of each strong urge, total incontinence, and urge incontinence episode. Efficacy data for Part 1 and Part 2 are summarized herein.
The total number of urgency incontinence episodes must have exceeded the total number of stress incontinence episodes for all subjects.
Conversely, a dose dependent effect on urge incontinence or total incontinence was not observed.

O=C(Nc1ccc(C[C@@H]2CC[C@H]([C@H](O)c3ccccc3)N2)cc1)[C@@H]1CCc2nccc(=O)n21 [Vibegron, (6S)—N-[4-[[(2S,5R)-5-[(R)-hydroxy(phenyl)methyl]pyrrolidin-2-yl]methyl]phenyl]-4-oxo-7,8-dihydro-6H-pyrrolo[1,2-a]pyrimidine-6-carboxamide]
Cmax increased in elderly Japanese vs elderly non-Japanese [1]: 82%
Micturitions, change from baseline in average number of micturitions, difference in LS means (men and women with OAB; 50 mg - Placebo): −0.64
Total incontinence, change from baseline in average number of episodes, difference in LS means (men and women with OAB; 50 mg - Placebo): −0.60
Urgency Episodes, change from baseline in average number of episodes, difference in LS means (men and women with OAB; 50 mg - Placebo): −0.76
Urgency incontinence, change from baseline in average number of episodes, difference in LS means (men and women with OAB; 50 mg - Placebo): −0.72
Volume voided, change from baseline in average volume per void over one diary day, difference in LS means (men and women with OAB; 50 mg - Placebo): 29.1 mL
Micturitions, change from baseline in average number of micturitions, difference in LS means (men and women with OAB; 100 mg - 50 mg): −0.27
Total incontinence, change from baseline in average number of episodes, difference in LS means (men and women with OAB; 100 mg - 50 mg): 0.02
Urgency Episodes, change from baseline in average number of episodes, difference in LS means (men and women with OAB; 100 mg - 50 mg): −0.48
Urgency incontinence, change from baseline in average number of episodes, difference in LS means (men and women with OAB; 100 mg - 50 mg): 0.01
Volume voided, change from baseline in average volume per void over one diary day, difference in LS means (men and women with OAB; 100 mg - 50 mg): -5.69 mL
Micturitions, change from baseline in average number of micturitions, difference in LS means (men and women with OAB; 100 mg - Placebo): −0.91
Total incontinence, change from baseline in average number of episodes, difference in LS means (men and women with OAB; 100 mg - Placebo): −0.58
Urgency Episodes, change from baseline in average number of episodes, difference in LS means (men and women with OAB; 100 mg - Placebo): −1.24
Urgency incontinence, change from baseline in average number of episodes, difference in LS means (men and women with OAB; 100 mg - Placebo): −0.71
Volume voided, change from baseline in average volume per void over one diary day, difference in LS means (men and women with OAB; 100 mg - Placebo): 23.4 mL
Micturitions, change from baseline Week 8, mean (men and women with OAB; vibegron 3 mg): −1.56
Micturitions, daily number, Week 8 mean (men and women with OAB; vibegron 3 mg): 9.35
Micturitions, difference from placebo Week 8, difference in LS means (men and women with OAB; vibegron 3 mg): −0.46
Urgency episodes, change from baseline Week 8, mean (men and women with OAB; vibegron 3 mg): −1.69
Urgency episodes, daily number, Week 8 mean (men and women with OAB; vibegron 3 mg): 4.68
Urgency episodes, difference from placebo Week 8, difference in LS means (men and women with OAB; vibegron 3 mg): −0.18
Change from baseline in volume voided per micturition, difference from placebo in LS means (men and women with OAB; vibegron 3 mg once daily): 15.99 mL
Total incontinence episodes, change from baseline Week 8, mean (men and women with OAB; vibegron 3 mg): −1.56
Total incontinence episodes, daily number, Week 8 mean (men and women with OAB; vibegron 3 mg): 1.38
Total incontinence episodes, difference from placebo Week 8, difference in LS means (men and women with OAB; vibegron 3 mg): −0.18
Urgency incontinence episodes, change from baseline Week 8, mean (men and women with OAB; vibegron 3 mg): −1.38
Urgency incontinence episodes, daily number, Week 8 mean (men and women with OAB; vibegron 3 mg): 1.21
Urgency incontinence episodes, difference from placebo Week 8, difference in LS means (men and women with OAB; vibegron 3 mg): −0.28
Micturitions, change from baseline Week 8, mean (men and women with OAB; vibegron 15 mg): −1.71
Micturitions, daily number, Week 8 mean (men and women with OAB; vibegron 15 mg): 9.53
Micturitions, difference from placebo Week 8, difference in LS means (men and women with OAB; vibegron 15 mg): −0.45
Urgency episodes, change from baseline Week 8, mean (men and women with OAB; vibegron 15 mg): −2.35
Urgency episodes, daily number, Week 8 mean (men and women with OAB; vibegron 15 mg): 4.42
Urgency episodes, difference from placebo Week 8, difference in LS means (men and women with OAB; vibegron 15 mg): −0.67
Change from baseline in volume voided per micturition, difference from placebo in LS means (men and women with OAB; vibegron 15 mg once daily): 28.23 mL
Total incontinence episodes, change from baseline Week 8, mean (men and women with OAB; vibegron 15 mg): −1.99
Total incontinence episodes, daily number, Week 8 mean (men and women with OAB; vibegron 15 mg): 1.31
Total incontinence episodes, difference from placebo Week 8, difference in LS means (men and women with OAB; vibegron 15 mg): −0.48
Urgency incontinence episodes, change from baseline Week 8, mean (men and women with OAB; vibegron 15 mg): −1.81
Urgency incontinence episodes, daily number, Week 8 mean (men and women with OAB; vibegron 15 mg): 1.12
Urgency incontinence episodes, difference from placebo Week 8, difference in LS means (men and women with OAB; vibegron 15 mg): −0.57
Micturitions, change from baseline Week 8, mean (men and women with OAB; vibegron 50 mg): −1.87
Micturitions, daily number, Week 8 mean (men and women with OAB; vibegron 50 mg): 9.05
Micturitions, difference from placebo Week 8, difference in LS means (men and women with OAB; vibegron 50 mg): −0.64
Urgency episodes, change from baseline Week 8, mean (men and women with OAB; vibegron 50 mg): −2.36
Urgency episodes, daily number, Week 8 mean (men and women with OAB; vibegron 50 mg): 3.71
Urgency episodes, difference from placebo Week 8, difference in LS means (men and women with OAB; vibegron 50 mg): −0.76
Change from baseline in volume voided per micturition, difference from placebo in LS means (men and women with OAB; vibegron 50 mg once daily): 29.05 mL
Total incontinence episodes, change from baseline Week 8, mean (men and women with OAB; vibegron 50 mg): −2.02
Total incontinence episodes, daily number, Week 8 mean (men and women with OAB; vibegron 50 mg): 1.02
Total incontinence episodes, difference from placebo Week 8, difference in LS means (men and women with OAB; vibegron 50 mg): −0.60
Urgency incontinence episodes, change from baseline Week 8, mean (men and women with OAB; vibegron 50 mg): −1.90
Urgency incontinence episodes, daily number, Week 8 mean (men and women with OAB; vibegron 50 mg): 0.86
Urgency incontinence episodes, difference from placebo Week 8, difference in LS means (men and women with OAB; vibegron 50 mg): −0.72
Micturitions, change from baseline Week 8, mean (men and women with OAB; vibegron 100 mg): −2.11
Micturitions, daily number, Week 8 mean (men and women with OAB; vibegron 100 mg): 9.02
Micturitions, difference from placebo Week 8, difference in LS means (men and women with OAB; vibegron 100 mg): −0.91
Urgency episodes, change from baseline Week 8, mean (men and women with OAB; vibegron 100 mg): −2.98
Urgency episodes, daily number, Week 8 mean (men and women with OAB; vibegron 100 mg): 4.22
Urgency episodes, difference from placebo Week 8, difference in LS means (men and women with OAB; vibegron 100 mg): −1.24
Change from baseline in volume voided per micturition, difference from placebo in LS means (men and women with OAB; vibegron 100 mg once daily): 23.36 mL
Total incontinence episodes, change from baseline Week 8, mean (men and women with OAB; vibegron 100 mg): −2.26
Total incontinence episodes, daily number, Week 8 mean (men and women with OAB; vibegron 100 mg): 1.12
Total incontinence episodes, difference from placebo Week 8, difference in LS means (men and women with OAB; vibegron 100 mg): −0.58
Urgency incontinence episodes, change from baseline Week 8, mean (men and women with OAB; vibegron 100 mg): −2.05
Urgency incontinence episodes, daily number, Week 8 mean (men and women with OAB; vibegron 100 mg): 0.84
Urgency incontinence episodes, difference from placebo Week 8, difference in LS means (men and women with OAB; vibegron 100 mg): −0.71

Reference: US20230218624A1 (Urovant Sciences GmbH, priority 2017, published 2023)
